Results from paper PMC7248880, “Preclinical Incorporation Dosimetry of [^18F]FACH—A Novel ^18F-Labeled MCT1/MCT4 Lactate Transporter Inhibitor for Imaging Cancer Metabolism with PET” (Molecules, 2020).

Experiment: Whole-body PET/CT distribution of activity
Assay type: in vivo, piglets
Protocol: Early accumulation in the bone structures might be related to defluorination. At later time points, activity also accumulated in the gall bladder and the urinary bladder.
Three piglets (age: ~6 weeks, weight: ~13–15 kg) were fasted on the day of imaging and received an intranuscular. injection of 1 mL azaperone and 4 mL ketamine to introduce anesthesia. […] During narcosis, the animals maintained spontaneous respiration and no mandatory ventilation was applied. The subjects were sequentially imaged after an iv injection (contralateral ear vein) of 156 ± 54 MBq [^18F]FACH (0.63 ± 0.49 µg) in a PET/CT system (Biograph16, SIEMENS, Erlangen, Germany). The piglets were positioned prone with legs alongside the body on a custom-made plastic trough including a piglet head-holder (Figure 5). The PET acquisition was divided into a sequential (4 × 9 min, 3 × 12 min) and a static part (1 × 24 min, 1 × 30 min, 1 × 36 min), each of which was preceded by a low-dose CT to acquire structural data for attenuation correction (AC) and anatomical orientation (Figure 6). Post mortem, the urine was collected by bladder punctuation, weighted, and divided into three 1 mL samples for activity measurements in a gamma-counter (Packard Cobra II 5003 Auto Gamma Counting System, GMI, Ramsey, MN, USA).
The image data were analyzed with ROVER (ABX, Radeberg, Germany; v. 3.0.46h). […]

In the case of `CCCN(CCC[18F])c1ccc(/C=C(\C#N)C(=O)O)c(OC)c1` [[^18F]FACH, (E)-2-cyano-3-{4-[(3-[^18F]fluoropropyl)(propyl)amino]-2-methoxyphenyl}acrylic acid], the “distribution of activity (organs with high uptake)” value (one representative animal, PET at different times p.i.) is reported as “high uptake in the liver, pancreas, small intestines, and spleen” and the “route of excretion indicated by PET” value (rapid uptake in liver, later gall bladder) is reported as “hepatobiliary excretion”.
